Molecules are shown by their SMILES.

The assay concerns the target T1, human melanopsin (Homo sapiens, UniProt Q9UHM6).
T1 sequence (Q9UHM6 1-384 limits assumed): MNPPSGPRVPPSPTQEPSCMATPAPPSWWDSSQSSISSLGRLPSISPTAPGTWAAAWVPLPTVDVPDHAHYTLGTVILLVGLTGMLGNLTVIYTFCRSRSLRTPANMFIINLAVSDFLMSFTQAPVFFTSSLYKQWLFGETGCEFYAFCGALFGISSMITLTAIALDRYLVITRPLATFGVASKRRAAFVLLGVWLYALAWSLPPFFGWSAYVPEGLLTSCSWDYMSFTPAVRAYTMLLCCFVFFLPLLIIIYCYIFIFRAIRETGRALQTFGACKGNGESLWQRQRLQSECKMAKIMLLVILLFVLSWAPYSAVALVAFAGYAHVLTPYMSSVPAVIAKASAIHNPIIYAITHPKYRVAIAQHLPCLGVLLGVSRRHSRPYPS
The assay is described as follows: GsX GloSensor assay with exogenous Gsα WT. The format is cell-based. The arrangement: the C-terminal amino acid residues (94, 140, 200, 214, 296, and 308 residues); expressed in transfected cells; host or cells: COS-1. To be noted: 16.7 μM AA92593; COS-1 cells. The text has this: Previous studies of human and mouse melanopsins reported that these melanopsins can activate not only Gq but Gs and Gi ([20], [21], [22]). Thus, we assessed the effect of AA92593 on Gsα WT or Gsα/i11 (with 11 C-terminal sequence of Giα) using the GsX GloSensor assay. In agreement with the promiscuous G protein-coupling of melanopsins, we observed light-dependent increase of GloSensor luminescence in COS-1 cells expressing Gsα or Gsα/i11 with human/mouse melanopsins (Fig. 1, G–J).
For GloSensor assay, opsins, GloSensor assay sensor (coded by pGlo-22F), and NanoBiT-tagged G proteins were transiently expressed in COS-1 cells (kindly provided from Dr David Farrens, Oregon Health and Science University) using PEI as described previously ([24], [52]). […] For GFP-fluorescence microscopy, a 35-mm cell culture dish (IWAKI) was transfected with 2 μg melanopsin-GFP plasmid and 8 μg PEI in 400 μl Opti-mem and 1.2 ml D-MEM. […]
The transfected COS-1 cells were incubated at 37 °C, 5% CO2 for 2 days, and the medium was aspirated and exchanged with 50 μl of HBSS (145 mM NaCl, 10 mM D-glucose, 5 mM KCl, 1 mM MgCl2, 1.7 mM CaCl2, 1.5 mM NaHCO3, 10 mM Hepes, pH 7.4), containing 33.3, 20, 10, 2, 0.2, 0.02, 0.002, or 0 μM AA92593, 0.5% dimetyl sulfoxide (DMSO), and 4% (vol/vol) GloSensor cAMP reagent stock solution. […] Luminescence was measured using GM-2000 or GM-3510 microplate reader (Promega). […]

Regarding `COc1ccc(S(=O)(=O)N2CCCCC2)cc1C` [AA92593], the “effect on melanopsin-induced cAMP responses via exogenous Gsα” value was “can suppress”.
